According to patent publication US8729051B2, “Tri- and tetra-oligo-saccharides suitable as agglutination agents for enteric pathogens” (Nutrition Sciences N.V./S.A., priority 2006, dated 2014):

Legend:
[1] = Chicken performance (weight, feed conversion); format: in vivo, chickens; conditions: feed with 3 ppm flavomycin or 0.025% oligo-saccharides
Text: 3×40 one day old chickens were provided with following feeds: control feed, control feed supplemented with 3 ppm flavomycin and control feed supplemented with 0.025% tri- and/or tetra-manno-oligo-saccharides. The control feed was a mash feed, composed of raw materials suitable for animal nutrition. Water and feed were supplied ad libitum. The chickens were contaminated at day 2 with caecum contents of 3 week old chickens (most critical period for gastrointestinal problems). At regular time intervals, chickens were dissected and the enteric pathogen contents in the small intestine were determined by plate counting on MacConkey agar.
The same experimental conditions were applied as described in experiment 1. In this example, daily growth and feed conversion were monitored after 13 days.

E. coli K88 cells = experiment: Pathogen agglutination, microscopic analysis; format: cell-based; conditions: 0.025%, pH 7.0, 10 minutes; versus xylose, penta- and deca-xylo-oligo-saccharides
Procedure: Tri and/or tetra-manno-oligo-saccharides were incubated in liquid at a dose of 0.025% at pH 7.0 with E. coli K88 and Lactobacillus amylovorus cells for 10 minutes. After 10 minutes, agglutination was visualised by means of microscopic analysis.

| Compound | Feed conversion/chicken ([1]; after 13 days) | Weight/chicken at day 1 ([1]; day 1) | Weight/chicken at day 13 ([1]; day 13) | agglutination, comparison of degree of polymerisation of xylo-oligo-saccharides (E. coli K88 cells) |
| --- | --- | --- | --- | --- |
| flavomycin | 1.51 | 43.54 | 208.8 | – |
| OC1OC[C@@H](O[C@@H]2OC[C@@H](O[C@@H]3OC[C@@H](O)[C@H](O)[C@H]3O)[C@H](O)[C@H]2O)[C@H](O)[C@H]1O (some centres unmarked) [tri-xylo-oligo-saccharides] | – | – | – | best agglutination |
| tetra-xylo-oligo-saccharides | – | – | – | best agglutination |
